The text below walks through data of patent publication US20250230147A1, “LACTAMS AS CBL-B INHIBITORS” (Genentech, Inc., priority 2021, published 2025).

The target in one experiment is Cbl-b (Homo sapiens (Human), UniProt Q13191). Briefly: Cbl-b LCK Ub TR-FRET assay (Cbl-b Lck HTRF). Type of experiment: biochemical. In a few lines:
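TR-FRET (340 nm excitation, 615/665 nm emission) read after adding HA-ubiquitin–UBE2D2 thioester, anti-HA-D2 and streptavidin-Eu. Beforehand, compounds incubated 60 min with biotinylated Cbl-b, then 90 min with His-LCK and ATP (1 mM in 2× mix); IC50 from 10 concentrations, DMSO high and no-LCK low controls.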
(In TR-FRET formats the signal depends on donor and acceptor labels being close together.)

In a further experiment the target is c-Cbl (Homo sapiens (Human), UniProt P22681). Briefly: C-Cbl LCK Ub TR-FRET assay (c-cbl Lck HTRF). As to conditions: for (fold-selectivity): C-cbl Lck HTRF IC50 relative to Cbl-b Lck HTRF IC50. Type of experiment: biochemical. In short, it runs like this:
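Detection reagents added, brief spin, 20 min RT. IC50 fit normalized to no-LCK (low) and DMSO (high) controls.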

Each structure is given as a SMILES string.

Sequence of Cbl-b (Q13191 40-426): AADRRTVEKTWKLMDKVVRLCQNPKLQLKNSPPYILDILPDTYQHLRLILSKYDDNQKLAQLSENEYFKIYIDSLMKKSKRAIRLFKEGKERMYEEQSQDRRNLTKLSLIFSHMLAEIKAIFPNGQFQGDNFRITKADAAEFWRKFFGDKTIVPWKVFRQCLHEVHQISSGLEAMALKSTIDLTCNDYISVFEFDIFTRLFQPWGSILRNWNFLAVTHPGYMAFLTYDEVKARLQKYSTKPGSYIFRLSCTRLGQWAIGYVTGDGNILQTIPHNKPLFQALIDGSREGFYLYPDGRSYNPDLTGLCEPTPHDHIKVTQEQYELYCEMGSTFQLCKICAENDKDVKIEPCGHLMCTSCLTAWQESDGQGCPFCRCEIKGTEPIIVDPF
Sequence of c-Cbl (P22681 47-435): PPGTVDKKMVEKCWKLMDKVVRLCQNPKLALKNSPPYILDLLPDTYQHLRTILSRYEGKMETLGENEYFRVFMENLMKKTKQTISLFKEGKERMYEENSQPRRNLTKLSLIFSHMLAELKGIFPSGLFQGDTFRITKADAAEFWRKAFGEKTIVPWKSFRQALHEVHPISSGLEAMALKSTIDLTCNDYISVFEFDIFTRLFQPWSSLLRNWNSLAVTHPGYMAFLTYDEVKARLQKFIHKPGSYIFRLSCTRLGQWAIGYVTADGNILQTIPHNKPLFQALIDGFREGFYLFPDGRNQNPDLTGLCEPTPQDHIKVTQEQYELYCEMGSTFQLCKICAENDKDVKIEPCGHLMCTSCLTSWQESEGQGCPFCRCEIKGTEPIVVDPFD

The IC50 is the concentration that inhibits the measured activity by half. A high value points to a need for much substance. Take `CC(C)Nc1cc(N2Cc3c(cc(CNCC4CC4)cc3C(F)(F)F)C2=O)cc(C2(Cc3nncn3C)CCC2)c1` [Compound 459, 6-(((cyclopropylmethyl)amino)methyl)-2-(3-(isopropylamino)-5-(1-((4-methyl-4H-1,2,4-triazol-3-yl)methyl)cyclobutyl)phenyl)-4-(trifluoromethyl)isoindolin-1-one]: the IC50 on Cbl-b was 0.013 µM; against c-Cbl, 0.0087 µM. For the same molecule, on c-Cbl, the “(fold-selectivity)” value is recorded as “(0.70x)”.
The corresponding values for `CCc1cccc2c1CN(c1cccc(C3([C@@H](F)c4nncn4C)COC3)c1)C2=O` [Compound 209] are 1.1 µM, 1.9 µM and 1.7x.
The corresponding values for `C[C@@H](NC1(C)CCC1)c1cc2c(c(C(F)(F)F)c1)CN(c1cccc(C3(Cc4nncn4C)CC(F)(F)C3)c1)C2=O` [Compound 245, (R)-2-(3-(3,3-difluoro-1-((4-methyl-4H-1,2,4-triazol-3-yl)-methyl)cyclobutyl)phenyl)-6-(1-((1-methylcyclobutyl)amino)ethyl)-4-(trifluoromethyl)-isoindolin-1-one] are 0.013 µM, 0.013 µM and “(1.0x)”.
The corresponding values for `Cn1cnnc1[C@H](F)C1(c2cccc(N3Cc4c(cc(CN5CCC[C@@H]5CO)cc4C(F)(F)F)C3=O)c2)COC1` [Compound 147, 2-(3-(3-((R)-fluoro(4-methyl-4H-1,2,4-triazol-3-yl)methyl)oxetan-3-yl)phenyl)-6-(((R)-2-(hydroxymethyl)pyrrolidin-1-yl)methyl)-4-(trifluoromethyl)isoindolin-1-one] are 0.15 µM, 0.19 µM and 1.3x.
`Cn1cnnc1CC1(c2cc(OC3CCCC3)nc(N3Cc4c(cc(CNC5(C)CCC5)cc4C(F)(F)F)C3=O)c2)COC1` [Compound 294, 2-(6-(cyclopentyloxy)-4-(3-((4-methyl-4H-1,2,4-triazol-3-yl)methyl)oxetan-3-yl)pyridin-2-yl)-6-(((1-methylcyclobutyl)amino)methyl)-4-(trifluoromethyl)isoindolin-1-one] came in with an IC50 at Cbl-b of 0.0095 µM. For the same molecule, at c-Cbl, half-maximal inhibition (IC50) was put at 0.016 µM and the “(fold-selectivity)” value is listed as “(1.7x)”.
The corresponding values for `Cn1cnnc1[C@@H](F)C1(c2cccc(N3Cc4c(cc(CN5CC6CC5C6)cc4C(F)(F)F)C3=O)c2)COC1` [Compound 87, (S)-6-((2-azabicyclo[2.1.1]hexan-2-yl)methyl)-2-(3-(3-(fluoro(4-methyl-4H-1,2,4-triazol-3-yl)methyl)oxetan-3-yl)phenyl)-4-(trifluoromethyl)isoindolin-1-one] are 1.2 µM, 3.1 µM and 2.6x.
At Cbl-b, `CCOc1cc(N2Cc3c(cc(CNC4(C)CCC4)cc3C(F)(F)F)C2=O)cc(C2(Cc3nncn3C)COC2)c1` [Compound 473, 2-(3-ethoxy-5-(3-((4-methyl-4H-1,2,4-triazol-3-yl)methyl)oxetan-3-yl)phenyl)-6-(((1-methylcyclobutyl)amino)methyl)-4-(trifluoromethyl)isoindolin-1-one] showed an IC50 of 0.015 µM. For the same molecule, on c-Cbl, the half-inhibitory concentration (IC50) worked out at 0.017 µM and the “(fold-selectivity)” value was “(1.2x)”.
The molecule `CO[C@@H]1CCN(Cc2cc3c(c(C(F)(F)F)c2)CN(c2cccc(C4([C@H](F)c5nncn5C)COC4)c2)C3=O)C1` [Compound 48, 2-(3-(3-((S)-fluoro(4-methyl-4H-1,2,4-triazol-3-yl)methyl)oxetan-3-yl)phenyl)-6-(((R)-3-methoxypyrrolidin-1-yl)methyl)-4-(trifluoromethyl)isoindolin-1-one] came in with an IC50 against Cbl-b of 0.32 µM. For the same molecule, on c-Cbl, it took 0.78 µM to reach half-maximal inhibition (IC50) and the “(fold-selectivity)” value was found to be 2.4x.
Take `CC(C)Nc1cc(N2Cc3c(cc(CN4CCN(C)C[C@@H]4C(C)C)cc3C(F)(F)F)C2=O)cc(C2(Cc3nncn3C)CCC2)c1` [Compound 408, (S)-6-((2-isopropyl-4-methylpiperazin-1-yl)methyl)-2-(3-(isopropylamino)-5-(1-((4-methyl-4H-1,2,4-triazol-3-yl)methyl)cyclobutyl)phenyl)-4-(trifluoromethyl)isoindolin-1-one]: the figures for the IC50 at Cbl-b and against c-Cbl were 0.013 µM and 0.0091 µM, respectively. Besides, the “(fold-selectivity)” value on c-Cbl is “(0.68x)”.
The corresponding values for `Cn1cnnc1CC1(c2cccc(N3Cc4c(cc([C@@H](N)C5CC5)cc4C(F)(F)F)C3=O)c2)CC(F)(F)C1` [Compound 453, (S)-6-(amino(cyclopropyl)methyl)-2-(3-(3,3-difluoro-1-((4-methyl-4H-1,2,4-triazol-3-yl)methyl)cyclobutyl)phenyl)-4-(trifluoromethyl)isoindolin-1-one] are 0.014 µM, 0.018 µM and “(1.4x)”.
The corresponding values for `Cn1cnnc1[C@@H](F)C1(c2cccc(N3Cc4c(cc(CN5CC(S(C)(=O)=O)C5)cc4C(F)(F)F)C3=O)c2)COC1` [Compound 164, (S)-2-(3-(3-(fluoro(4-methyl-4H-1,2,4-triazol-3-yl)methyl)oxetan-3-yl)phenyl)-6-((3-(methylsulfonyl)azetidin-1-yl)methyl)-4-(trifluoromethyl)isoindolin-1-one] are 0.35 µM, 0.64 µM and 1.8x.
The corresponding values for `CC[C@@H]1CCC[C@H](c2cc3c(c(C(F)(F)F)c2)CN(c2cccc(C4(Cc5nncn5C)CC(F)(F)C4)c2)C3=O)N1` [Compound 274, 2-(3-(3,3-difluoro-1-((4-methyl-4H-1,2,4-triazol-3-yl)methyl)cyclobutyl)phenyl)-6-((2R,6R)-6-ethylpiperidin-2-yl)-4-(trifluoromethyl)isoindolin-1-one] are 0.14 µM, 0.22 µM and “(1.6x)”.
Take `CN(C)CCNc1cc(C2(Cc3nncn3C)CCC2)cc(N2Cc3c(cc(CNC4(C)CCC4)cc3C(F)(F)F)C2=O)n1` [Compound 337, 2-(6-((2-(dimethylamino)ethyl)amino)-4-(1-((4-methyl-4H-1,2,4-triazol-3-yl)methyl)cyclobutyl)pyridin-2-yl)-6-(((1-methylcyclobutyl)amino)methyl)-4-(trifluoromethyl)isoindolin-1-one]: the results for the IC50 on Cbl-b and against c-Cbl were 2.4 µM and 1.1 µM, respectively. Also, the “(fold-selectivity)” value at c-Cbl is listed as “(0.45x)”.
The corresponding values for `Cn1cnnc1CC1(c2cc(-c3ccc4ccccc4c3)nc(N3Cc4c(cc(CNC5(C)CCC5)cc4C(F)(F)F)C3=O)c2)CCC1` [Compound 350, 2-(4-(1-((4-methyl-4H-1,2,4-triazol-3-yl)methyl)cyclobutyl)-6-(naphthalen-2-yl)pyridin-2-yl)-6-(((1-methylcyclobutyl)amino)methyl)-4-(trifluoromethyl)isoindolin-1-one] are 0.028 µM, 0.016 µM and “(0.57x)”.
The corresponding values for `CC[C@H]1CC[C@H](c2cc3c(c(C(F)(F)F)c2)CN(c2cccc(C4(Cc5nncn5C)CC(F)(F)C4)c2)C3=O)N1` [Compound 469, 2-(3-(3,3-difluoro-1-((4-methyl-4H-1,2,4-triazol-3-yl)methyl)cyclobutyl)phenyl)-6-((2R,5S)-5-ethylpyrrolidin-2-yl)-4-(trifluoromethyl)isoindolin-1-one] are 0.048 µM, 0.052 µM and “(1.1x)”.
The corresponding values for `Cn1cnnc1CC1(c2cccc(N3Cc4c(cc(CNC5(C)CCC5)cc4C(F)(F)F)C3=O)c2)COC1` [Compound 301, 2-(3-(3-((4-methyl-4H-1,2,4-triazol-3-yl)methyl)oxetan-3-yl)phenyl)-6-(((1-methylcyclobutyl)amino)methyl)-4-(trifluoromethyl)isoindolin-1-one] are 0.012 µM, 0.01 µM and “(0.86x)”.
In the case of `CN(CCC(C)(C)O)Cc1cc2c(c(C(F)(F)F)c1)CN(c1cccc(C3([C@@H](F)c4nncn4C)COC3)c1)C2=O` [Compound 157, (R)-2-(3-(3-(fluoro(4-methyl-4H-1,2,4-triazol-3-yl)methyl)oxetan-3-yl)phenyl)-6-(((3-hydroxy-3-methylbutyl)(methyl)amino)methyl)-4-(trifluoromethyl)isoindolin-1-one], the IC50 against Cbl-b amounted to 0.072 µM. Besides, on c-Cbl, the half-inhibitory concentration (IC50) amounted to 0.11 µM and the “(fold-selectivity)” value was 1.6x.
`Cn1cnnc1[C@@H](F)C1(c2cccc(N3Cc4c(cc(CC5CNC5)cc4C(F)(F)F)C3=O)c2)COC1` [Compound 58, (S)-6-(azetidin-3-ylmethyl)-2-(3-(3-(fluoro(4-methyl-4H-1,2,4-triazol-3-yl)methyl)oxetan-3-yl)phenyl)-4-(trifluoromethyl)isoindolin-1-one] had an IC50 at Cbl-b of 0.2 µM. Besides, on c-Cbl, the IC50 was 0.36 µM and the “(fold-selectivity)” value stood at 1.8x.
With `Cn1cnnc1CC1(c2cccc(N3Cc4c(cc(CN5CCC[C@](C)(O)C5)cc4C(F)(F)F)C3=O)c2)CC(F)(F)C1` [Compound 440, (S)-2-(3-(3,3-difluoro-1-((4-methyl-4H-1,2,4-triazol-3-yl)methyl)cyclobutyl)phenyl)-6-((3-hydroxy-3-methylpiperidin-1-yl)methyl)-4-(trifluoromethyl)isoindolin-1-one], the IC50 against Cbl-b came to 0.14 µM; against c-Cbl, 0.11 µM. The “(fold-selectivity)” value on c-Cbl is listed as “(0.79x)”.
The corresponding values for `Cn1cnnc1CC1(c2cccc(N3Cc4c(cc(C5CNC5)cc4C(F)(F)F)C3=O)c2)COC1` [Compound 12, 6-(azetidin-3-yl)-2-(3-(3-((4-methyl-4H-1,2,4-triazol-3-yl)methyl)oxetan-3-yl)phenyl)-4-(trifluoromethyl)isoindolin-1-one] are 0.22 µM, 0.21 µM and 0.94x.
